# Results: patent US9738634B2, “Heterocyclic amide compound and herbicide” (SYNGENTA PARTICIPATIONS AG, priority 2013, dated 2017)
# Tests used:
# Type in all cases: in vivo
# barnyard grass [1] = assay: Test Example 1: weedkilling efficacy, preemergent weed treatment in the submerged state; A: barnyard grass; settings: treatment dosage 1000 g/ha
# Method in brief: (§1)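 Visual scores against set criteria were taken 3 weeks after treatment. Compounds, as diluted emulsions at specified g/ha, went onto the water surface of 4 cm-flooded alluvial soil pots on the day weeds were sown and 2.5-leaf rice was transplanted; greenhouse held 25–30 °C.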
# bulrush [2] = assay: Test Example 1: weedkilling efficacy, preemergent weed treatment in the submerged state; B: bulrush; settings: treatment dosage 1000 g/ha
# Method in brief: as §1
# oval-leafed pondweed [3] = assay: Test Example 1: weedkilling efficacy, preemergent weed treatment in the submerged state; C: oval-leafed pondweed; settings: treatment dosage 1000 g/ha
# Method in brief: as §1
# transplanted rice = assay: Test Example 1: preemergent weed treatment in the submerged state, effect on crop; a: transplanted rice; settings: treatment dosage 1000 g/ha
# Method in brief: as §1
# barnyard grass [4] = assay: Test Example 2: weedkilling efficacy, growth period weed treatment in the submerged state; A: barnyard grass; settings: treatment dosage 1000 g/ha
# Method in brief: (§2)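 Barnyard grass, bulrush and oval-leafed pondweed sown in alluvial soil under 4 cm flooding, greenhouse 25 to 30° C. At 1-2 leaf stage, water-diluted emulsion applied to the water surface at stated g/ha dosages; effects scored 3 weeks later.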
# bulrush [5] = assay: Test Example 2: weedkilling efficacy, growth period weed treatment in the submerged state; B: bulrush; settings: treatment dosage 1000 g/ha
# Method in brief: as §2
# oval-leafed pondweed [6] = assay: Test Example 2: weedkilling efficacy, growth period weed treatment in the submerged state; C: oval-leafed pondweed; settings: treatment dosage 1000 g/ha
# Method in brief: as §2
# crabgrass [7] = assay: Test Example 3: weedkilling efficacy through soil treatment; D: crabgrass; settings: treatment dosage 1250 g/ha
# Method in brief: (§3)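 Crop and weed responses were judged three weeks after a uniform surface spray of the water-diluted emulsion at the given g/ha rate. Seeds sat beneath about 1.5 cm of sterilized diluvial soil, and boxes stood in a greenhouse at 25 to 30° C.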
# green foxtail [8] = assay: Test Example 3: weedkilling efficacy through soil treatment; E: green foxtail; settings: treatment dosage 1250 g/ha
# Method in brief: as §3
# wild oat [9] = assay: Test Example 3: weedkilling efficacy through soil treatment; G: wild oat; settings: treatment dosage 1250 g/ha
# Method in brief: as §3
# black-grass [10] = assay: Test Example 3: weedkilling efficacy through soil treatment; H: black-grass; settings: treatment dosage 1250 g/ha
# Method in brief: as §3
# Italian ryegrass [11] = assay: Test Example 3: weedkilling efficacy through soil treatment; I: Italian ryegrass; settings: treatment dosage 1250 g/ha
# Method in brief: as §3
# Indian mallow [12] = assay: Test Example 3: weedkilling efficacy through soil treatment; K: Indian mallow; settings: treatment dosage 1250 g/ha
# Method in brief: as §3
# redroot pigweed [13] = assay: Test Example 3: weedkilling efficacy through soil treatment; L: redroot pigweed; settings: treatment dosage 1250 g/ha
# Method in brief: as §3
# fig-leafed goosefoot [14] = assay: Test Example 3: weedkilling efficacy through soil treatment; M: fig-leafed goosefoot; settings: treatment dosage 1250 g/ha
# Method in brief: as §3
# chickweed [15] = assay: Test Example 3: weedkilling efficacy through soil treatment; N: chickweed; settings: treatment dosage 1250 g/ha
# Method in brief: as §3
# catchweed [16] = assay: Test Example 3: weedkilling efficacy through soil treatment; O: catchweed; settings: treatment dosage 1250 g/ha
# Method in brief: as §3
# birds-eye speedwell [17] = assay: Test Example 3: weedkilling efficacy through soil treatment; p: birds-eye speedwell; settings: treatment dosage 1250 g/ha
# Method in brief: as §3
# directly sown rice [18] = assay: Test Example 3: soil treatment, effect on crop; b: directly sown rice; settings: treatment dosage 1250 g/ha
# Method in brief: as §3
# corn [19] = assay: Test Example 3: soil treatment, effect on crop; c: corn; settings: treatment dosage 1250 g/ha
# Method in brief: as §3
# soybean [20] = assay: Test Example 3: soil treatment, effect on crop; d: soybean; settings: treatment dosage 1250 g/ha
# Method in brief: as §3
# wheat [21] = assay: Test Example 3: soil treatment, effect on crop; e: wheat; settings: treatment dosage 1250 g/ha
# Method in brief: as §3
# beet [22] = assay: Test Example 3: soil treatment, effect on crop; f: beet; settings: treatment dosage 1250 g/ha
# Method in brief: as §3
# crabgrass [23] = assay: Test Example 4: weedkilling efficacy by foliar treatment; D: crabgrass; settings: treatment dosage 1250 g/ha
# Method in brief: (§4)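 Seeds are spot-sown into sterilized diluvial soil and covered with about 1.5 cm of soil. After 14 days' greenhouse growth at 25 to 30° C, plants are sprayed on stems and leaves with diluted emulsion at the stated g/ha rate, then scored at 3 weeks.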
# green foxtail [24] = assay: Test Example 4: weedkilling efficacy by foliar treatment; E: green foxtail; settings: treatment dosage 1250 g/ha
# Method in brief: as §4
# wild oat [25] = assay: Test Example 4: weedkilling efficacy by foliar treatment; G: wild oat; settings: treatment dosage 1250 g/ha
# Method in brief: as §4
# black-grass [26] = assay: Test Example 4: weedkilling efficacy by foliar treatment; H: black-grass; settings: treatment dosage 1250 g/ha
# Method in brief: as §4
# Italian ryegrass [27] = assay: Test Example 4: weedkilling efficacy by foliar treatment; I: Italian ryegrass; settings: treatment dosage 1250 g/ha
# Method in brief: as §4
# Indian mallow [28] = assay: Test Example 4: weedkilling efficacy by foliar treatment; K: Indian mallow; settings: treatment dosage 1250 g/ha
# Method in brief: as §4
# redroot pigweed [29] = assay: Test Example 4: weedkilling efficacy by foliar treatment; L: redroot pigweed; settings: treatment dosage 1250 g/ha
# Method in brief: as §4
# fig-leafed goosefoot [30] = assay: Test Example 4: weedkilling efficacy by foliar treatment; M: fig-leafed goosefoot; settings: treatment dosage 1250 g/ha
# Method in brief: as §4
# chickweed [31] = assay: Test Example 4: weedkilling efficacy by foliar treatment; N: chickweed; settings: treatment dosage 1250 g/ha
# Method in brief: as §4
# catchweed [32] = assay: Test Example 4: weedkilling efficacy by foliar treatment; O: catchweed; settings: treatment dosage 1250 g/ha
# Method in brief: as §4
# birds-eye speedwell [33] = assay: Test Example 4: weedkilling efficacy by foliar treatment; p: birds-eye speedwell; settings: treatment dosage 1250 g/ha
# Method in brief: as §4
# directly sown rice [34] = assay: Test Example 4: foliar treatment, effect on crop; b: directly sown rice; settings: treatment dosage 1250 g/ha
# Method in brief: as §4
# corn [35] = assay: Test Example 4: foliar treatment, effect on crop; c: corn; settings: treatment dosage 1250 g/ha
# Method in brief: as §4
# soybean [36] = assay: Test Example 4: foliar treatment, effect on crop; d: soybean; settings: treatment dosage 1250 g/ha
# Method in brief: as §4
# wheat [37] = assay: Test Example 4: foliar treatment, effect on crop; e: wheat; settings: treatment dosage 1250 g/ha
# Method in brief: as §4
# beet [38] = assay: Test Example 4: foliar treatment, effect on crop; f: beet; settings: treatment dosage 1250 g/ha
# Method in brief: as §4
smiles,measurement,setting,value
CC1=C(c2cccnc2Cl)C(=O)N(C(C)(C)C(=O)Nc2cccc(Cl)n2)CO1 [B-2-20],A (barnyard grass) weedkilling efficacy grade,barnyard grass [1],"5 (weed kill ratio 90% or more, (practically complete withering))"
same,B (bulrush) weedkilling efficacy grade,bulrush [2],"5 (weed kill ratio 90% or more, (practically complete withering))"
same,C (oval-leafed pondweed) weedkilling efficacy grade,oval-leafed pondweed [3],"4 (weed kill ratio 70% or more, less than 90%)"
same,a (transplanted rice) effect on crop grade,transplanted rice,0 (weed kill ratio 5% or less (practically no effect))
same,A (barnyard grass) weedkilling efficacy grade,barnyard grass [4],"1 (weed kill ratio 5% or more, less than 20%)"
same,B (bulrush) weedkilling efficacy grade,bulrush [5],"5 (weed kill ratio 90% or more, (practically complete withering))"
same,C (oval-leafed pondweed) weedkilling efficacy grade,oval-leafed pondweed [6],"3 (weed kill ratio 40% or more, less than 70%)"
same,D (crabgrass) weedkilling efficacy grade,crabgrass [7],"3 (weed kill ratio 40% or more, less than 70%)"
same,E (green foxtail) weedkilling efficacy grade,green foxtail [8],"5 (weed kill ratio 90% or more, (practically complete withering))"
same,G (wild oat) weedkilling efficacy grade,wild oat [9],0 (weed kill ratio 5% or less (practically no effect))
same,H (black-grass) weedkilling efficacy grade,black-grass [10],"5 (weed kill ratio 90% or more, (practically complete withering))"
same,I (Italian ryegrass) weedkilling efficacy grade,Italian ryegrass [11],"5 (weed kill ratio 90% or more, (practically complete withering))"
same,K (Indian mallow) weedkilling efficacy grade,Indian mallow [12],"2 (weed kill ratio 20% or more, less than 40%)"
same,L (redroot pigweed) weedkilling efficacy grade,redroot pigweed [13],"4 (weed kill ratio 70% or more, less than 90%)"
same,M (fig-leafed goosefoot) weedkilling efficacy grade,fig-leafed goosefoot [14],"4 (weed kill ratio 70% or more, less than 90%)"
same,N (chickweed) weedkilling efficacy grade,chickweed [15],"3 (weed kill ratio 40% or more, less than 70%)"
same,O (catchweed) weedkilling efficacy grade,catchweed [16],0 (weed kill ratio 5% or less (practically no effect))
same,P (birds-eye speedwell) weedkilling efficacy grade,birds-eye speedwell [17],"4 (weed kill ratio 70% or more, less than 90%)"
same,b (directly sown rice) effect on crop grade,directly sown rice [18],"4 (weed kill ratio 70% or more, less than 90%)"
same,c (corn) effect on crop grade,corn [19],0 (weed kill ratio 5% or less (practically no effect))
same,d (soybean) effect on crop grade,soybean [20],0 (weed kill ratio 5% or less (practically no effect))
same,e (wheat) effect on crop grade,wheat [21],0 (weed kill ratio 5% or less (practically no effect))
same,f (beet) effect on crop grade,beet [22],"4 (weed kill ratio 70% or more, less than 90%)"
same,D (crabgrass) weedkilling efficacy grade,crabgrass [23],"5 (weed kill ratio 90% or more, (practically complete withering))"
same,E (green foxtail) weedkilling efficacy grade,green foxtail [24],"5 (weed kill ratio 90% or more, (practically complete withering))"
same,G (wild oat) weedkilling efficacy grade,wild oat [25],0 (weed kill ratio 5% or less (practically no effect))
same,H (black-grass) weedkilling efficacy grade,black-grass [26],"4 (weed kill ratio 70% or more, less than 90%)"
same,I (Italian ryegrass) weedkilling efficacy grade,Italian ryegrass [27],"4 (weed kill ratio 70% or more, less than 90%)"
same,K (Indian mallow) weedkilling efficacy grade,Indian mallow [28],0 (weed kill ratio 5% or less (practically no effect))
same,L (redroot pigweed) weedkilling efficacy grade,redroot pigweed [29],"3 (weed kill ratio 40% or more, less than 70%)"
same,M (fig-leafed goosefoot) weedkilling efficacy grade,fig-leafed goosefoot [30],"3 (weed kill ratio 40% or more, less than 70%)"
same,N (chickweed) weedkilling efficacy grade,chickweed [31],"2 (weed kill ratio 20% or more, less than 40%)"
same,O (catchweed) weedkilling efficacy grade,catchweed [32],0 (weed kill ratio 5% or less (practically no effect))
same,P (birds-eye speedwell) weedkilling efficacy grade,birds-eye speedwell [33],"4 (weed kill ratio 70% or more, less than 90%)"
same,b (directly sown rice) effect on crop grade,directly sown rice [34],0 (weed kill ratio 5% or less (practically no effect))
same,c (corn) effect on crop grade,corn [35],"1 (weed kill ratio 5% or more, less than 20%)"
same,d (soybean) effect on crop grade,soybean [36],"3 (weed kill ratio 40% or more, less than 70%)"
same,e (wheat) effect on crop grade,wheat [37],0 (weed kill ratio 5% or less (practically no effect))
same,f (beet) effect on crop grade,beet [38],"4 (weed kill ratio 70% or more, less than 90%)"
